The source of these data is EP2650284A1, “Heterocyclic derivatives as metabotropic glutamate receptor modulators” (Merz Pharma GmbH & Co. KGaA, priority 2012, dated 2013).

Assay [1] addresses T1, human metabotropic glutamate receptor mGluR5 (Homo sapiens, UniProt P41594).
T1 construct: expressed in transfected cells; host or cells: CHO-K1 (h5CHO), IPTG-inducible
In words: Cytosolic calcium studies with stably transfected cells (h5CHO), functional assay of mGluR5 receptors. In kind it is cell-based. Particulars: for IC50: Table A2, negative modulation, compounds added 5 minutes before L-quisqualic acid (~80% of the maximal signal), read-out: hIC50; for IC50 / h left shift: h5CHO cells; for h left shift / EC50: Table A1; for h left shift: left shift of agonist EC50, dose response curves in the presence of 10 µM modulator or vehicle; for EC50: positive modulators, h5CHO cells preincubated with modulator, stimulated by an EC20 concentration of L-glutamate, read-out: hEC50. The method, then:
Chinese hamster ovary cells (CHO-K1 cells), stably transfected for inducible expression of a human metabotropic glutamate receptor mGluR5 to form a cell line called h5CHO, are seeded into black clear bottom 96 well plates at a density of 35.000 cells per well. The standard growth medium used (Dulbecco's modified Eagle Medium, DMEM plus L-proline) contains the appropriate inducer isopropyl-β-D-thiogalactopyranosid (IPTG) to achieve optimal receptor expression. One day after seeding the growth medium is exchanged for reconstituted Ca-Kit (Molecular Devices, USA) and incubated for one hour. Ca-Kit is reconstituted in an assay buffer containing 20 mM HEPES pH 7.4, glutamic-pyruvate transaminase, pyridoxal phosphate and sodium pyruvate in Hank's balanced salt solution (HBBS). Agonistic compounds to the receptor elicit increases in cytosolic calcium which can be measured as increases in fluorescence signals by use of a fluorescence imaging plate reader (Molecular Devices). To analyze their potency to negatively modulate the Ca-response test compounds, dissolved in a final DMSO concentration of 0.5%, are added on-line 5 minutes before the agonist to the receptor (L-quisqualic acid at a concentration giving ~80% of the maximal signal). EC50 values for positive allosteric modulators were determined by stimulating the cells which have been preincubated the modulators by an EC20 concentration of L-glutamate.
(§1) The fluorescence signal increase after addition of agonist reflects the increase of cytosolic calcium. Inconsistencies in the amount of cells per well are normalised by using the spatial uniformity correction of the FLIPR operating software Screenworks. The mean of replicated temporal data (n=3-5) is calculated and used for graphical representation. For the evaluation of the pharmacology, the calcium changes in response to different concentrations of agonist or antagonist are determined using a maximum minus minimum (MaxMin) calculation.
(§2) All responses (RFU-values) are determined as percentage of control (= maximum response). EC50 and IC50 are calculated according the logistic equation using XLFit (IDBS, UK) or Prism 4.0 (GraphPad Software, USA). The compounds of the present invention have a potency (EC50 or IC50) within a range of about 0.5 nM to about 100 µM. The left shifts for positive or slient allosteric modulators (PAMs or SAMs, respectively) are determined by comparison of EC50 values from agonist dose response curves run in the presence of 10 µM modulator or vehicle (Vanejevs et al., J. Med. Chem., 2008, 51, 634-647).

A further assay concerns the target T2, mGluR5 receptors (Rattus norvegicus, UniProt P31424).
T2 construct: Primary astrocyte cultures are prepared from cortices of newborn rats; endogenous in cells; host or cells: primary cortical astrocytes from Sprague-Dawley rat pups (2-4 d old)
In words: Cytosolic calcium studies with astrocytes (FLIPR), functional assay of mGluR5 receptors. In kind it is cell-based. Particulars: for r left shift: Table A1, left shift of quisqualate EC50 in the presence and absence of 10 µM modulator; for EC50: Table A1, positive modulators, fixed concentration of quisqualate (normally 10-30 nM), read-out: rEC50. The method, then:
Primary astrocyte cultures are prepared from cortices of newborn rats as described by Booher and Sensenbrenner (1972, Neurobiology 2(3):97-105). Briefly, Sprague-Dawley rat pups (2 - 4 d old) are decapitated and neocortices are dissected, disintegrated with a nylon filter (pore size 80 µm) and carefully triturated. The cell suspension is plated on poly-D-lysine pre-coated flasks (Costar, Netherlands) and cultivated in Dulbecco's Modified Eagle's Medium (DMEM, Invitrogen, Germany) supplemented with 10% foetal calf serum (FCS, Sigma, Germany), 4 mM glutamine and 50 µg/ml gentamycin (both Biochrom, Germany) at 37°C in a humidified atmosphere of 5% CO2/ 95% air for 7 days with exchanging the medium at day 2 and 6.
After 7 days in vitro (DIV), cells are shaken overnight at 250 rpm to remove oligodendrocytes and microglia. The next day, astrocytes are rinsed twice with CMF-PBS (calcium- and magnesium-free phosphate buffered saline, Biochrom, Germany), trypsinized and subplated on poly-D-lysine pre-coated 96-well plates (Greiner, Germany) at a density of 40,000 cells/well. 24 h after establishing the secondary culture the astrocytes are rinsed with PBS^++ (phosphate buffered saline, Biochrom, Germany) and fed with astrocyte-defined medium (ADM) consisting of DMEM containing 1x G5-supplement (Invitrogen, Germany), 0.5 µg/ml heparan sulfate, and 1.5 µg/ml fibronectin (both Sigma, Germany) (Miller et al., (1993) Brain Res. 618(1):175-8). 3 days later the medium is exchanged and the cells incubated for another 2-3 days, so that at the time of experiments astrocytes are 14-15 DIV.
The increase of cytosolic calcium after stimulation with the mGluR5 agonist L-quisqualate is measured using a fluorometric imaging plate reader (FLIPR) and the Ca-Kit (both Molecular Devices). Prior to addition of agonist or antagonist the medium is aspirated and cells are loaded for 2 h at RT with 150 µl of loading buffer consisting of Ca-sensitive dye reconstituted in sodium chloride (123 mM), potassium chloride (5.4 mM), magnesium chloride (0.8 mM), calcium chloride (1.8 mM), D-glucose (15 mM), and HEPES (20 mM), pH 7.3. Subsequently, plates are transferred to FLIPR to detect calcium increase with the addition of L-quisqualate (100 nM) measured as relative fluorescence units (RFU). If antagonists are tested, these compounds are pre-incubated for 10 minutes at RT before addition of the respective agonist.
For positive modulators, concentration-response curves for quisqualate are performed in the presence and absence of 10 µM modulator to determine the extent of potentiation / agonist potency increase. Thereafter, concentration-response curves for the positive modulator are performed in the presence of a fixed concentration of quisqualate showing the biggest window for potentiation (normally 10-30 nM).
as §1, §2

T1 sequence (P41594 21-1212): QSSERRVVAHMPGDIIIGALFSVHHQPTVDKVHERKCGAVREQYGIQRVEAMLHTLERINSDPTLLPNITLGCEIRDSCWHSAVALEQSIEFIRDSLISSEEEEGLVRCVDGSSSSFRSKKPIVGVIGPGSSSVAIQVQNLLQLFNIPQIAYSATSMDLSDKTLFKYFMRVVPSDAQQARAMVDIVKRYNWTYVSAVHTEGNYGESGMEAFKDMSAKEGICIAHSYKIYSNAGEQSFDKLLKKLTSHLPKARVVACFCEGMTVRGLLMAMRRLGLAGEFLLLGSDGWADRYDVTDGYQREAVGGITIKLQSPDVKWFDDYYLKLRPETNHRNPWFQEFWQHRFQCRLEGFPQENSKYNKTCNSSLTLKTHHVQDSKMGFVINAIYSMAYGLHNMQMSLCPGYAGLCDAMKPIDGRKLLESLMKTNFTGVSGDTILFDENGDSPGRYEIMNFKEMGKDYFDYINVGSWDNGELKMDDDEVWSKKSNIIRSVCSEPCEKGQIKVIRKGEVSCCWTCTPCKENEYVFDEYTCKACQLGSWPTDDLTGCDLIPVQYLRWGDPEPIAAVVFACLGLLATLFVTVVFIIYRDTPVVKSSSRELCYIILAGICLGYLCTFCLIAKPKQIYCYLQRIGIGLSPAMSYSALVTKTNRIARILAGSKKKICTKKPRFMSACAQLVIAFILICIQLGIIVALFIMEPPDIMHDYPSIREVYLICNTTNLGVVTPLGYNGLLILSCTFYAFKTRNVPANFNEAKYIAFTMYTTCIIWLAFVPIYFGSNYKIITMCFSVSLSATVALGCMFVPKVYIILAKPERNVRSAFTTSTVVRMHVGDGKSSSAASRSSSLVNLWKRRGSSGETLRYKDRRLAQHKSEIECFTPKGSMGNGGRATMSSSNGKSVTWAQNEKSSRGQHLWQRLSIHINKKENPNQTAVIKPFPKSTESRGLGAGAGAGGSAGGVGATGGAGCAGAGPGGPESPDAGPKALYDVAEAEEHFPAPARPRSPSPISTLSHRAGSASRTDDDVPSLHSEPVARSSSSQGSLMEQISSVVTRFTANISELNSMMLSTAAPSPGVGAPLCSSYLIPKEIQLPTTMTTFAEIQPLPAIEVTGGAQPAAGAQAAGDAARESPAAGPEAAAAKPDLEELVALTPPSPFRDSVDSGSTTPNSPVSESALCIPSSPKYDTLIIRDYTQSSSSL
T2 sequence (P31424 21-1203): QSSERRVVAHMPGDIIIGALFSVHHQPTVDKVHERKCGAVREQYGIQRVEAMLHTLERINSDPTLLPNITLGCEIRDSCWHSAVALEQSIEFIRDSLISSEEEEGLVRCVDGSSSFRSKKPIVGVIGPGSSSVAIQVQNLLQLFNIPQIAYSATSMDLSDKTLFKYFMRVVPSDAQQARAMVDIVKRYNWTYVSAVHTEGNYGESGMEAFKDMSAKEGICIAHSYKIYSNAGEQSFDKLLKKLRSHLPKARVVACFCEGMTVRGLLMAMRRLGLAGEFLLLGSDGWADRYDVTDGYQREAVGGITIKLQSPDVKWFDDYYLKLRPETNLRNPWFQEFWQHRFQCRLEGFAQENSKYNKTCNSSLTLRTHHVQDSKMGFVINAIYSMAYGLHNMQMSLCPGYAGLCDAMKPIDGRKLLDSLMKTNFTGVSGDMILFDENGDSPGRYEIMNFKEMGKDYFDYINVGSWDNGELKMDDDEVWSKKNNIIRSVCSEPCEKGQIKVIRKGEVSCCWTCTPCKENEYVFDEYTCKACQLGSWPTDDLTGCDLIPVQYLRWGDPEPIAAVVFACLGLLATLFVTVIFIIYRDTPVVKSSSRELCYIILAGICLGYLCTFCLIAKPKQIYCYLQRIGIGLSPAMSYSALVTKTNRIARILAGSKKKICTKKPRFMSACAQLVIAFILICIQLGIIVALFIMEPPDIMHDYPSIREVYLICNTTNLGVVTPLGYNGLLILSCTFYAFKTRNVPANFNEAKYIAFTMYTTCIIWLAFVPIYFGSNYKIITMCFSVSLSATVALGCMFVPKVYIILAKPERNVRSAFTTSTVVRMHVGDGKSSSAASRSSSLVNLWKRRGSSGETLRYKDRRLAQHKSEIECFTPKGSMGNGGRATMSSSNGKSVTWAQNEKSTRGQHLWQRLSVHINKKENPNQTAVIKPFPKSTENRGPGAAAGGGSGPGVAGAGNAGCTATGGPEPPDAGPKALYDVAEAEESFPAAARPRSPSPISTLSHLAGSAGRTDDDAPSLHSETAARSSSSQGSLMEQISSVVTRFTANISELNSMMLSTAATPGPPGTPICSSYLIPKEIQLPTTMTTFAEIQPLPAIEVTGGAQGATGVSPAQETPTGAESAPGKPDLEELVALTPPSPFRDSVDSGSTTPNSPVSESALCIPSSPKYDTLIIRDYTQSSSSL

Consider `CN(C)C(=O)N1CCc2ncc(C#Cc3cccc(N)n3)cc2C1` [Example 47, 3-((6-Aminopyridin-2-yl)ethynyl)-N,N-dimethyl-7,8-dihydro-1,6-naphthyridine-6(5H)-carboxamide], for which the IC50 in assay [1] was found to be 261 nM.
As to `CCCN1CC2(CCCc3ncc(C#Cc4ccccc4)cc32)OC1=O` (racemic) [Example 82, (rac)-3'-(Phenylethynyl)-3-propyl-7',8'-dihydro-6'H-spiro[oxazolidine-5,5'-quinolin]-2-one], in assay [1], the h left shift is given as 1.9-fold and the EC50 was 727 nM. For the same molecule, at mGluR5 receptors, the r left shift was 1.6-fold and the EC50 stood at 233 nM.
Take `COC(=O)N1Cc2cc(C#Cc3ccccc3)cnc2[C@H]2CCCC[C@H]21` (racemic) [Example 62, (rac)-cis-Methyl 3-(phenylethynyl)-6a,7,8,9,10,10a-hexahydrobenzo[h][1,6]naphthyridine-6(5H)-carboxylate]: in assay [1], the IC50 came to 1400 nM.
Take `CN1CCN(S(=O)(=O)N2CCc3ncc(C#Cc4ccccc4)cc3C2)CC1` [Example 78, 6-((4-Methylpiperazin-1-yl)sulfonyl)-3-(phenylethynyl)-5,6,7,8-tetrahydro-1,6-naphthyridine]: in assay [1], the h left shift is 1.7-fold and the EC50 was 2020 nM. Also, the EC50 at mGluR5 receptors came out at 2050 nM.
Turning to `CC(C)(C)[S+]([O-])N1CCc2ncc(C#Cc3ccccc3)cc2C1` (racemic) [Example 37, (rac)-6-(tert-Butylsulfinyl)-3-(phenylethynyl)-5,6,7,8-tetrahydro-1,6-naphthyridine], in assay [1], the h left shift was 2.5-fold and the EC50 was determined as 472 nM. At mGluR5 receptors, the r left shift is given as 3.3-fold and the EC50 was determined as 508 nM.
The corresponding values for `O=C1OC2(CCCc3ncc(C#Cc4cccc(F)c4)cc32)CN1c1ccccc1` (racemic) [Example 67, (rac)-3'-((3-Fluorophenyl)ethynyl)-3-phenyl-7',8'-dihydro-6'H-spiro[oxazolidine-5,5'-quinolin]-2-one] are 2.1-fold, 1310 nM, 1.7-fold and 88.3 nM.
For `O=C1NCC2(CCCc3ncc(C#Cc4ccccc4)cc32)O1` (racemic) [Example 10, (rac)-3'-(Phenylethynyl)-7',8'-dihydro-6'H-spiro[oxazolidine-5,5'-quinolin]-2-one], the h left shift in assay [1] was 1.8-fold.
In the case of `CCN(CC)C(=O)N1CCc2ncc(C#Cc3cccc(C#N)c3)cc2C1` [Example 48, 3-((3-Cyanophenyl)ethynyl)-N,N-diethyl-7,8-dihydro-1,6-naphthyridine-6(5H)-carboxamide], in assay [1], the IC50 was 194 nM.
On the same count and under the same terms, next, `CC(C)(C)C(=O)N1CCc2ncc(C#Cc3cccc(N)n3)cc2C1` [Example 35, 1-(3-((6-Aminopyridin-2-yl)ethynyl)-7,8-dihydro-1,6-naphthyridin-6(5H)-yl)-2,2-dimethylpropan-1-one]: 617 nM; `COC(=O)N1Cc2cc(C#Cc3cccc(F)c3)cnc2[C@H]2CCC[C@H]21` (racemic) [Example 61, (rac)-cis-Methyl 3-((3-fluorophenyl)ethynyl)-7,8,9,9a-tetrahydro-5H-cyclopenta[h][1,6]naphthyridine-6(6aH)-carboxylate]: 132 nM.
Still for that read-out and setting: for `CN(C)C(=O)N1CCc2ncc(C#Cc3ccccc3)cc2C1` [Example 44, N,N-Dimethyl-3-(phenylethynyl)-7,8-dihydro-1,6-naphthyridine-6(5H)-carboxamide] the value was 247 nM; for `COC1CCCc2ncc(C#Cc3cccc(N)n3)cc21` (racemic) [Example 3, (rac)-6-((5-Methoxy-5,6,7,8-tetrahydroquinolin-3-yl)ethynyl)pyridin-2-amine], 4230 nM; for `COC(=O)N1Cc2cc(C#Cc3cccc(F)c3)cnc2[C@H]2CCCC[C@H]21` (racemic) [Example 63, (rac)-cis-Methyl 3-((3-fluorophenyl)ethynyl)-6a,7,8,9,10,10a-hexahydrobenzo[h][1,6]naphthyridine-6(5H)-carboxylate], 1320 nM.
The same measure, in the same setting: next, `CN1CCC2Cc3ncc(C#Cc4ccccc4)cc3CN2C1=O` (racemic) [Example 57, (rac)-8-Methyl-3-(phenylethynyl)-9,10,10a,11-tetrahydro-5H-pyrimido[1,6-g][1,6]naphthyridin-7(8H)-one]: 190 nM; `COC1CC(C)(C)Oc2ncc(C#Cc3cn4ccccc4n3)cc21` (racemic) [Example 8, (rac)-6-(Imidazo[1,2-a]pyridin-2-ylethynyl)-4-methoxy-2,2-dimethyl-3,4-dihydro-2H-pyrano[2,3-b]pyridine]: 225 nM; `COC1CC(C)(C)Cc2ncc(C#Cc3ccccc3)cc21` (racemic) [Example 4, (rac)-5-Methoxy-7,7-dimethyl-3-(phenylethynyl)-5,6,7,8-tetrahydroquinoline]: 341 nM.
`COC1CC(C)(C)Cc2ncc(C#Cc3cn4ccccc4n3)cc21` (racemic) [Example 6, (rac)-3-(Imidazo[1,2-a]pyridin-2-ylethynyl)-5-methoxy-7,7-dimethyl-5,6,7,8-tetrahydroquinoline]: the IC50 in assay [1] was 695 nM.
Still for that read-out and setting: for `Cc1cccc(C#Cc2cnc3c(c2)CS(=O)(=O)CC3)c1` [Example 68, 3-(m-Tolylethynyl)-7,8-dihydro-5H-thiopyrano[4,3-b]pyridine 6,6-dioxide] the value was 75.5 nM.
Same read-out and setting: next, `COC1CC(C)(C)Oc2ncc(C#Cc3cccc(N)n3)cc21` (racemic) [Example 7, (rac)-6-((4-Methoxy-2,2-dimethyl-3,4-dihydro-2H-pyrano[2,3-b]pyridin-6-yl)ethynyl)pyridin-2-amine]: 203 nM.
Regarding `CC1(C)c2cc(C#Cc3ccccc3)cnc2CCS1(=O)=O` [Example 75, 5,5-Dimethyl-3-(phenylethynyl)-7,8-dihydro-5H-thiopyrano[4,3-b]pyridine 6,6-dioxide], in assay [1], the h left shift is on record as 1.6-fold and the EC50 is 971 nM.
